Source: PubChem BioAssay AID330 (DTP/NCI, 2004)
Values joined by “and” are separate entries in the source; they are usually repeats but may differ in a detail not shown here. Equal entries are not always repeated. Toxic doses and inconclusive results are not listed. Rule for the calls: active = survival T/C of 150% or more; inactive = T/C below 125% in these data.

Test system: P388 leukemia ip, CD2F1 mice, survival T/C
Test: NCI In Vivo Anticancer Drug Screen. Data for tumor model P388 Leukemia (intraperitoneal) in CD2F1 (CDF1) mice
Settings: endpoint: median survival time, higher = longer survival
Outline: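 Mice carrying the transplanted tumor received test compound or vehicle. Survival was recorded in each group, and the value is the treated-group measurement divided by that of the vehicle-treated control group.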

[1] = dose: 25.0 mg/kg/injection, schedule: Q01DX005 (ip), vehicle: saline with Tween-80
[2] = dose: 50.0 mg/kg/injection, schedule: Q01DX005 (ip), vehicle: saline with Tween-80
[3] = dose: 100.0 mg/kg/injection, schedule: Q01DX001 (ip), vehicle: saline with Tween-80
[4] = dose: 200.0 mg/kg/injection, schedule: Q01DX001 (ip), vehicle: saline with Tween-80
[5] = dose: 400.0 mg/kg/injection, schedule: Q01DX001 (ip), vehicle: saline with Tween-80
[6] = dose: 100.0 mg/kg/injection, schedule: Q01DX009 (ip), vehicle: saline with Tween-80
[7] = dose: 200.0 mg/kg/injection, schedule: Q01DX009 (ip), vehicle: saline with Tween-80
[8] = dose: 50.0 mg/kg/injection, schedule: Q01DX005 (ip), vehicle: Klucel (hydroxypropylcellulose) (HPC)
[9] = dose: 100.0 mg/kg/injection, schedule: Q01DX005 (ip), vehicle: Klucel (hydroxypropylcellulose) (HPC)
[10] = dose: 200.0 mg/kg/injection, schedule: Q01DX005 (ip), vehicle: Klucel (hydroxypropylcellulose) (HPC)
[11] = dose: 25.0 mg/kg/injection, schedule: Q04DX003 (ip), vehicle: saline
[12] = dose: 25.0 mg/kg/injection, schedule: Q01DX001 (ip), vehicle: Klucel (hydroxypropylcellulose) (HPC)
[13] = dose: 50.0 mg/kg/injection, schedule: Q01DX001 (ip), vehicle: Klucel (hydroxypropylcellulose) (HPC)
[14] = dose: 100.0 mg/kg/injection, schedule: Q01DX001 (ip), vehicle: Klucel (hydroxypropylcellulose) (HPC)
[15] = dose: 200.0 mg/kg/injection, schedule: Q01DX001 (ip), vehicle: Klucel (hydroxypropylcellulose) (HPC)
[16] = dose: 60.0 mg/kg/injection, schedule: Q01DX005 (ip), vehicle: saline with Tween-80
[17] = dose: 50.0 mg/kg/injection, schedule: Q01DX009 (ip), vehicle: saline with Tween-80
[18] = dose: 400.0 mg/kg/injection, schedule: Q01DX001 (ip), vehicle: Klucel (hydroxypropylcellulose) (HPC)
[19] = dose: 100.0 mg/kg/injection, schedule: Q01DX005 (ip), vehicle: saline with Tween-80

Measured: T/C

N#CC(=Nc1ccc(F)cc1F)C1=C(O)c2ccccc2C1=O
inactive: dose: 12.5 mg/kg/injection, schedule: Q01DX005 (ip), vehicle: saline with Tween-80 97 % of control | [1] 105 % of control | [2] 100 % of control

CC(C(O)CO)n1cnc2c(NCC(O)CO)ncnc21 (stereo not given)
inactive: [3] 101 % of control | [4] 107 % of control | [5] 100 % of control

Cc1o[nH]c(=O)c1C
inactive: [6] 100 % of control | [7] 100 % of control | dose: 400.0 mg/kg/injection, schedule: Q01DX009 (ip), vehicle: saline with Tween-80 100 % of control

CN(C)CCN1C(=O)Cc2ccccc2C1=O
inactive: dose: 12.5 mg/kg/injection, schedule: Q01DX001 (ip), vehicle: saline 111 % of control | dose: 25.0 mg/kg/injection, schedule: Q01DX001 (ip), vehicle: saline 109 % of control | dose: 50.0 mg/kg/injection, schedule: Q01DX001 (ip), vehicle: saline 101 % of control

O=P1(N2CCOCC2)OC(c2ccccc2)=CCN1c1ccccc1 (stereo not given)
inactive: [8] 103 % of control | [9] 103 % of control | [10] 104 % of control

COC(=O)C(Cc1cnc[nH]1)NC(=O)C(Cc1c[nH]c2ccccc12)NC(=O)OC(C)(C)C (stereo not given)
inactive: dose: 12.5 mg/kg/injection, schedule: Q01DX009 (ip), vehicle: other 100 % of control | dose: 25.0 mg/kg/injection, schedule: Q01DX009 (ip), vehicle: other 96 % of control | dose: 50.0 mg/kg/injection, schedule: Q01DX009 (ip), vehicle: other 96 % of control | dose: 100.0 mg/kg/injection, schedule: Q01DX009 (ip), vehicle: other 95 % of control | dose: 200.0 mg/kg/injection, schedule: Q01DX009 (ip), vehicle: other 91 % of control

COc1ccc(CC(C#N)c2ccccc2)cc1 (stereo not given)
inactive: [11] 99 % of control | dose: 50.0 mg/kg/injection, schedule: Q04DX003 (ip), vehicle: saline 104 % of control | dose: 100.0 mg/kg/injection, schedule: Q04DX003 (ip), vehicle: saline 103 % of control | dose: 200.0 mg/kg/injection, schedule: Q04DX003 (ip), vehicle: saline 99 % of control

NC(CSCCCSCC(N)C(=O)O)C(=O)O (stereo not given)
inactive: [12] 97 % of control | [13] 97 % of control | [14] 96 % of control and 97 % of control | [15] 104 % of control

CC(=O)OCCOCNC(=S)N/N=C/c1ccccn1
inactive: [16] 115 % of control

CCOC(=O)C(=CNNCCC#N)C(=O)OCC
inactive: [17] 90 % of control | [6] 90 % of control | [7] 95 % of control

Cc1ccc(NCCN2CCCCC2)c2c(=O)c3ccc(Cl)cc3sc12
inactive: dose: 60.0 mg/kg/injection, schedule: Q01DX005 (ip), vehicle: Klucel (hydroxypropylcellulose) (HPC) 94 % of control | dose: 120.0 mg/kg/injection, schedule: Q01DX005 (ip), vehicle: Klucel (hydroxypropylcellulose) (HPC) 86 % of control | dose: 240.0 mg/kg/injection, schedule: Q01DX005 (ip), vehicle: Klucel (hydroxypropylcellulose) (HPC) 97 % of control

COc1ccc2c(c1)C(C)(C#N)N(C)C(=O)C2=O (stereo not given)
inactive: [3] 100 % of control | [4] 101 % of control | [5] 96 % of control

Cc1ccc2c(c1)Nc1ccc(C)cc1C2(C)C
inactive: [8] 104 % of control | [9] 100 % of control | [10] 97 % of control

Cc1ccc(S(=O)(=O)N/N=C/c2c(Cl)[nH]c3cc(C)c(O)cc23)cc1
inactive: [12] 100 % of control | [13] 105 % of control | [14] 103 % of control and 91 % of control | [15] 103 % of control | [18] 91 % of control

O=[N+]([O-])c1ccc(Sc2ncnc3c2ncn3C2OC(CO)C(O)C2O)c2nonc12 (stereo not given)
inactive: dose: 12.5 mg/kg/injection, schedule: Q01DX009 (ip), vehicle: suspension in saline 119 % of control | dose: 50.0 mg/kg/injection, schedule: Q01DX009 (ip), vehicle: suspension in saline 103 % of control and 122 % of control

COC(=O)/C=C(\C)NC1CC(OC2C[C@](O)(C(C)=O)Cc3c(O)c4c(c(O)c32)C(=O)c2c(OC)cccc2C4=O)OC(C)C1O (stereo not given in full)
inactive: dose: 6.25 mg/kg/injection, schedule: Q04DX003 (ip), vehicle: saline with Tween-80 105 % of control | dose: 12.5 mg/kg/injection, schedule: Q04DX003 (ip), vehicle: saline with Tween-80 110 % of control and 113 % of control | dose: 50.0 mg/kg/injection, schedule: Q04DX003 (ip), vehicle: saline with Tween-80 96 % of control

O=C(Nc1cccc(C(=O)Nc2ccc(C3=NCCN3)cc2)c1)c1ccc(C2=NCCN2)cc1
inactive: dose: 6.25 mg/kg/injection, schedule: Q01DX009 (ip), vehicle: saline 118 % of control | dose: 6.25 mg/kg/injection, schedule: Q04DX003 (ip), vehicle: saline 100 % of control | dose: 12.5 mg/kg/injection, schedule: Q01DX009 (ip), vehicle: saline 118 % of control | dose: 12.5 mg/kg/injection, schedule: Q04DX003 (ip), vehicle: saline 100 % of control | [11] 100 % of control

CCSc1nc2ccc(N=C/C=C/c3ccccc3)cc2s1
inactive: dose: 50.0 mg/kg/injection, schedule: Q01DX009 (ip), vehicle: Klucel (hydroxypropylcellulose) (HPC) 110 % of control | dose: 100.0 mg/kg/injection, schedule: Q01DX009 (ip), vehicle: Klucel (hydroxypropylcellulose) (HPC) 98 % of control | dose: 200.0 mg/kg/injection, schedule: Q01DX009 (ip), vehicle: Klucel (hydroxypropylcellulose) (HPC) 110 % of control

CCn1c(Cl)c(/C=N/NC(N)=S)c2cc(/C=N/NC(N)=S)ccc21
inactive: [14] 98 % of control | [15] 97 % of control | [18] 89 % of control

CC[C@@H]1O[C@H]2O[C@@H](/C=C/C=C/C=C/c3oc(=O)cc(OC)c3C)[C@@H](O)[C@@]2(C)[C@]1(C)O
inactive: dose: 0.5 mg/kg/injection, schedule: Q01DX009 (ip), vehicle: Klucel (hydroxypropylcellulose) (HPC) 107 % of control | dose: 1.0 mg/kg/injection, schedule: Q01DX009 (ip), vehicle: Klucel (hydroxypropylcellulose) (HPC) 106 % of control | dose: 2.0 mg/kg/injection, schedule: Q01DX009 (ip), vehicle: Klucel (hydroxypropylcellulose) (HPC) 98 % of control

O=C(NC(Cc1ccc(I)cc1)C(=O)O)c1cccc(Cl)c1 (stereo not given)
inactive: [8] 99 % of control | [9] 108 % of control | [10] 108 % of control

COc1cccc2c1C(=O)c1c(O)c3c(c(O)c1C2=O)C[C@@](O)(C(C)=O)C[C@@H]3OC1CC(NCC(c2ccccc2)c2ccccc2)C(O)C(C)O1 (stereo not given in full)
inactive: dose: 6.25 mg/kg/injection, schedule: Q04DX003 (ip), vehicle: water 100 % of control | dose: 12.5 mg/kg/injection, schedule: Q04DX003 (ip), vehicle: water 101 % of control | dose: 25.0 mg/kg/injection, schedule: Q04DX003 (ip), vehicle: water 105 % of control | dose: 50.0 mg/kg/injection, schedule: Q04DX003 (ip), vehicle: water 110 % of control | dose: 100.0 mg/kg/injection, schedule: Q04DX003 (ip), vehicle: water 117 % of control

CCOc1cc2c(cc1C(C)c1ccc(OC)c(C)c1)OCO2 (stereo not given)
inactive: dose: 12.5 mg/kg/injection, schedule: Q01DX005 (ip), vehicle: Klucel (hydroxypropylcellulose) (HPC) 92 % of control | dose: 25.0 mg/kg/injection, schedule: Q01DX005 (ip), vehicle: Klucel (hydroxypropylcellulose) (HPC) 91 % of control | [8] 102 % of control and 111 % of control | [9] 101 % of control and 112 % of control | [10] 101 % of control and 114 % of control

CCCSCCSCCC
inactive: dose: 25.0 mg/kg/injection, schedule: Q01DX009 (ip), vehicle: saline with Tween-80 91 % of control | [17] 100 % of control | [6] 95 % of control

O=[N+]1C=Cc2ccccc2C1=C1c2ccccc2C=CN1[O-]
inactive: [1] 101 % of control | [2] 97 % of control | [19] 103 % of control

NCCCn1[nH]c(=O)c2ncccc2c1=O
inactive: [16] 110 % of control | dose: 120.0 mg/kg/injection, schedule: Q01DX005 (ip), vehicle: saline with Tween-80 112 % of control | dose: 240.0 mg/kg/injection, schedule: Q01DX005 (ip), vehicle: saline with Tween-80 102 % of control

CCOC(=O)C1=C(CC)NN=C(C)C1
inactive: [2] 105 % of control | [19] 103 % of control | dose: 200.0 mg/kg/injection, schedule: Q01DX005 (ip), vehicle: saline with Tween-80 100 % of control
